“Also recorded” adds a separate entry of the source.
Columns and labels:
KB-3-1 epidermal cells = details: Asp26Glu β-tubulin mutation; cited from earlier work
[1] = test system: human epidermoid carcinoma cell line; details: Thr274Pro β-tubulin mutation; cited from earlier work
[2] = test system: 1A9/B10 ovarian cancer cells; details: βArg282Gln mutation, EpoB-selected 1A9/B10 cells; cited from earlier work
1A9-A8 cells [3] = test: cells; type: cell-based, human; details: for IC50: 1A9-A8 cells, 72 hour exposure to the drug; for Relative Resistance (1A9-A8): ratio of IC50 against 1A9-A8 divided by IC50 against parental 1A9
Procedure: (§1) The epothilone A resistant cell line, 1A9-A8, was selected from the human ovarian carcinoma 1A9 cells as described by Giannakakou et al. ((2000) Proc. Natl. Acad. Sci. USA 97:2904-2909). The 1A9-A8^E clone (expressing both wt and mutant alleles) was an intermediate isolate in the selection process of 1A9-A8 (mutant allele only) cells. These cells were cultured in RPMI 1640 medium (Cellgro, Herndon, Va.) supplemented with 10% fetal bovine serum (Invitrogen, Carlsbad, Calif.) and 1% Penicillin-Streptomycin (Cellgro), and grown as monolayers at 37° C. in a 5% CO2 tissue culture incubator. The mouse monoclonal anti-α-tubulin (DM1α) antibody used is from Sigma Chemical Co. (St. Louis, Mo.). Both epothilones A and B were a generous gift from the laboratory of K. C. Nicolaou (The Scripps Research Institute, La Jolla, Calif.). Paclitaxel (Taxol®) was purchased from Sigma Chemical Co. and vincristine from Eli-Lilly (Indianapolis, Ind.).
(§2) Cytotoxicity assays using the protein-staining sulforhodamine B (SRB) method were performed in 96-well plates, as described by Giannakakou et al. ((1997) J. Biol. Chem. 272:17118-17125).

1A9-A8^E cells [4] = test: cells; type: cell-based, human; details: for IC50: 1A9-A8^E cells, 72 hour exposure to the drug; for Relative Resistance (1A9-A8^E): ratio of IC50 against 1A9-A8^E divided by IC50 against parental 1A9; for resistance of early-step isolate 1A9-A8^E to the selecting agent: growth inhibition assays, versus parental 1A9
Procedure: as §1, §2

1A9 cells [5] = test: cells; type: cell-based, human; details: parental 1A9 cells, 72 hour exposure to the drug
Procedure: as §1, §2

1A9-A8^E cells [6] = test: Mitotic index analysis, 1A9-A8^E cells; type: cell-based, human; details: 24 hr
Procedure: (§3) Cells were plated on glass coverslips and treated with drugs for 24 hours. Cells were fixed with ice-cold methanol and DNA was stained with Sytox Green (Molecular Probes, Eugene, Oreg.). Epifluorescence microscopy was used to count a minimum of 500 cells per drug treatment and mitotic figures were scored.

1A9-A8^E cells [7] = test: Cell cycle analysis by flow cytometry (G2/M arrest), 1A9-A8^E cells; type: cell-based, human
Procedure: (§4) Cell cycle analysis by flow cytometry was performed in the parental 1A9 and the 1A9-Epo^R clones, following overnight treatment with Epo A or Vincristine (VCR) as indicated. […] 10,000 events were recorded for each condition, the histogram is representative of three independent experiments.
(§5) Cells were plated in 6-well plates. The following day, they were treated with various concentrations of epothilone A and vincristine for 18 hours. Following treatment, both adherent and floating cells were harvested and pelleted by centrifugation. Cell pellets were suspended in 1 ml of 0.1 mg/ml propidium iodide containing 0.6% NP40 (ICN Pharmaceuticals, Costa Mesa, Calif.) with 1 mg/ml RNase A (Sigma Chemical Co.), then incubated in the dark at room temperature for 30 minutes. Data acquisition and analysis were performed on a FACScan instrument equipped with CellQuest software (Becton Dickinson Immunocytometry Systems, Franklin Lakes, N.J.). Cell cycle analysis was performed with Flowjo (Treestar). All cell cycle experiments were performed at least three times.

1A9 cells [8] = test: Mitotic index analysis, 1A9 cells; type: cell-based, human; details: 24 hr
Procedure: as §3

1A9-A8 cells [9] = test: Mitotic index analysis, 1A9-A8 cells; type: cell-based, human; details: 24 hr
Procedure: as §3

tubulin [10] = target: T1, tubulin (Homo sapiens, UniProt P07437); test: Cell-based tubulin polymerization assay, 1A9 cells
T1 construct: endogenous in cells; host or cells: 1A9 human ovarian carcinoma cells
T1 sequence (P68363 whole entry): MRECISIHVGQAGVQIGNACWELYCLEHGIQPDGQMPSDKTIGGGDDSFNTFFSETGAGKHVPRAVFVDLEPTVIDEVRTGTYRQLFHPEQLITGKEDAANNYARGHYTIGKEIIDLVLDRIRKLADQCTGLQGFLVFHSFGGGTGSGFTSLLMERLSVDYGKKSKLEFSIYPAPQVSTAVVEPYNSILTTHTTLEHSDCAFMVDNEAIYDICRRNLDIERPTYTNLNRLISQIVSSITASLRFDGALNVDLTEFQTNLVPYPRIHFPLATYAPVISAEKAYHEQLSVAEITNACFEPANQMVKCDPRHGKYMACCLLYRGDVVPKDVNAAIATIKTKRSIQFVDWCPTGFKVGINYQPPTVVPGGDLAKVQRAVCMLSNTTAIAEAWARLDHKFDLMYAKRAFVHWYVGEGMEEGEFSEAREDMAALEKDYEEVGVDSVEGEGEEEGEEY
T1 sequence (P07437 whole entry): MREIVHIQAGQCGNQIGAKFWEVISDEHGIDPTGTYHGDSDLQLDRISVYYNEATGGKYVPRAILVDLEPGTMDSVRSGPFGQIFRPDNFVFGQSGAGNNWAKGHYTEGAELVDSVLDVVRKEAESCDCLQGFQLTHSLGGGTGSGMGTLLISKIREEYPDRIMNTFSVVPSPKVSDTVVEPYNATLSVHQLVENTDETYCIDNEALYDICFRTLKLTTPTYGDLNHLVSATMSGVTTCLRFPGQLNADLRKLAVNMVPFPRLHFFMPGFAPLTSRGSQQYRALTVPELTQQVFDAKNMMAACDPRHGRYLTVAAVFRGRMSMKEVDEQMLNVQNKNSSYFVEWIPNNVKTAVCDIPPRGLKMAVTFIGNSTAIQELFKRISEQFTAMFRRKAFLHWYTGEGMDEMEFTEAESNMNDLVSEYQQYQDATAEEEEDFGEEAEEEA
Procedure: (§6) Drug-sensitive parental 1A9 (top panel) and the Epo A-resistant clones, 1A9/A8 and 1A9/A8E (lower panel), were treated for 5 hours with or without (0) various concentrations of Epo A as indicated. After cell lysis, the polymerized (P) and the soluble (S) protein fractions were separated by centrifugation, resolved by SDS/PAGE, and immunoblotted with an antibody against alpha-tubulin. The percent of polymerized tubulin (% P) was determined by dividing the densitometric value of polymerized tubulin by the total tubulin content (the sum of P plus S). The results shown are from a representative experiment of four independent observations.
(§7) In order to examine whether the tubulin gene status correlates with the ability of epothilone to induce tubulin polymerization in the three related cell lines (1A9, 1A9-A8, and 1A9-A8^E), cell-based tubulin polymerization assays were performed (FIG. 1). After treating the cells with escalating doses of Epo A, the cells were harvested in a low salt buffer and then centrifuged to separate the pellet fraction containing the polymerized form of tubulin, from the supernatant that contains the soluble form of tubulin. […]
(§8) Quantitation of the degree of in vivo tubulin polymerization in response to Epothilone A was performed as described by Giannakakou et al. ((1997) J. Biol. Chem. 272:17118-17125). […]

tubulin [11] = target: T2, tubulin (Homo sapiens, UniProt P07437, T274I); test: Cell-based tubulin polymerization assay, 1A9-A8 cells
T2 construct: endogenous in cells; host or cells: 1A9-A8 cells (late-step epothilone A-resistant clone of 1A9)
T2 sequence (P07437 whole entry T274I): as the sequence (P07437 whole entry) above, with T274I counted along it
T2 sequence (P68363 whole entry partner): as the sequence (P68363 whole entry) above
Procedure: as §6, §7, §8

1A9 cells [12] = test: Cell cycle analysis by flow cytometry (G2/M arrest), 1A9 cells; type: cell-based, human
Procedure: as §4, §5

1A9-A8 cells [13] = test: Cell cycle analysis by flow cytometry (G2/M arrest), 1A9-A8 cells; type: cell-based, human
Procedure: as §4, §5

tubulin [14] = test: Cell-based tubulin polymerization assay, 1A9-A8^E cells; design: species or system human
Procedure: as §6, §7, §8

[15] = test system: non-small cell lung cancer (NSCLC), Hela, and human leukemia cells; details: Gln292Glu β-tubulin mutation; cited from earlier work
[16] = test system: human breast cancer cells; details: Glu198Gly β-tubulin mutation; cited from earlier work
[17] = test system: epothilone-resistant human ovarian cancer cell lines; details: Thr274Ile and Arg282Gln epothilone-selected ovarian lines; cited from earlier work
[18] = test system: human ovarian cancer clones; details: two Taxol-selected ovarian clones, Phe270Val and Ala364Thr; cited from earlier work

C/C(=C\c1csc(C)n1)[C@@H]1C[C@@H]2O[C@]2(C)CCC[C@H](C)[C@H](O)[C@@H](C)C(=O)C(C)(C)[C@@H](O)CC(=O)O1 [Epothilone B]
fold resistance / cross-resistance (KB-3-1 epidermal cells): minimal cross-resistance
fold resistance / cross-resistance [1]: 8 fold
fold resistance / cross-resistance [2]: 24-53 fold
IC50 (1A9-A8 cells [3]): 29 nM
Relative Resistance (1A9-A8) (1A9-A8 cells [3]): 32
IC50 (1A9-A8^E cells [4]): 8 nM
Relative Resistance (1A9-A8^E) (1A9-A8^E cells [4]): 9
IC50 (1A9 cells [5]): 0.9 nM

C/C(=C\c1csc(C)n1)[C@@H]1C[C@@H]2O[C@@H]2CCC[C@H](C)[C@H](O)[C@@H](C)C(=O)C(C)(C)[C@@H](O)CC(=O)O1 [Epothilone A]
Mitotic Index (%) (1A9-A8^E cells [6]; 10 nM): 39%
Mitotic Index (%) (1A9-A8^E cells [6]; 100 nM): 47%
G2/M arrest (1A9-A8^E cells [7]; Epo A overnight treatment): partially arrested in G2/M; also recorded: modest G2/M arrest
fold resistance / cross-resistance [1]: 45 fold
Mitotic Index (%) (1A9 cells [8]; 10 nM): 82%
Mitotic Index (%) (1A9 cells [8]; 100 nM): 96%
Mitotic Index (%) (1A9-A8 cells [9]; 10 nM): 2.7%
Mitotic Index (%) (1A9-A8 cells [9]; 100 nM): 6.1%
fold resistance / cross-resistance [2]: 57-74 fold
effect on tubulin polymerization (tubulin [10]; 1A9 cells, escalating doses): dose-dependent increase in tubulin polymerization
percent of polymerized tubulin (% P) (tubulin [10]; parental 1A9 cells, 150 nM): 90%
effect on tubulin polymerization (tubulin [11]; 1A9-A8 cells, up to highest drug concentration (1500 nM)): almost no effect on tubulin polymerization
percent of polymerized tubulin (% P) (tubulin [11]; late-step 1A9-A8 cells, 150 nM): 3%
G2/M arrest (1A9 cells [12]; Epo A overnight treatment): complete G2/M arrest
IC50 (1A9-A8 cells [3]): 125 nM
resistance of late-step 1A9-A8 clone to the selecting agent (1A9-A8 cells [3]; growth inhibition assays, versus parental 1A9): 40 fold
Relative Resistance (1A9-A8) (1A9-A8 cells [3]): 39
IC50 (1A9-A8^E cells [4]): 32 nM
resistance of early-step isolate 1A9-A8^E to the selecting agent (1A9-A8^E cells [4]): 10 fold
resistance of early-step isolate 1A9-A8^E to the selecting agent (1A9-A8^E cells [4]; listed as Epo A): ten-fold
Relative Resistance (1A9-A8^E) (1A9-A8^E cells [4]): 10
IC50 (1A9 cells [5]): 3.2 nM
G2/M arrest (1A9-A8 cells [13]; Epo A overnight treatment, even at the highest concentration): failed to arrest in mitosis; also recorded: no change was observed in the cell cycle profile
effect on tubulin polymerization (tubulin [14]; 1A9-A8^E cells, escalating doses): intermediate degree of tubulin polymerization
percent of polymerized tubulin (% P) (tubulin [14]; early-step 1A9-A8^E cells, 150 nM): 70%

CC(=O)O[C@@]12CO[C@@H]1C[C@H](O)[C@@]1(C)C(=O)[C@H](O)C3=C(C)[C@@H](OC(=O)[C@H](O)[C@@H](NC(=O)OC(C)(C)C)c4ccccc4)C[C@@](O)([C@@H](OC(=O)c4ccccc4)[C@H]21)C3(C)C [Taxotere]
fold resistance / cross-resistance (KB-3-1 epidermal cells): 10 fold
fold resistance / cross-resistance [15]: 13 fold
fold resistance / cross resistance [16]: some cross resistance

CC(=O)O[C@H]1C(=O)[C@@]2(C)[C@H]([C@H](OC(=O)c3ccccc3)[C@]3(O)C[C@H](OC(=O)[C@H](O)[C@@H](NC(=O)c4ccccc4)c4ccccc4)C(C)=C1C3(C)C)[C@]1(OC(C)=O)CO[C@@H]1C[C@@H]2O [Paclitaxel]
fold resistance / cross-resistance (KB-3-1 epidermal cells): 18 fold
fold resistance / cross-resistance [15]: 22 fold
fold resistance / cross-resistance [1]: 96 fold
cross-resistance [17]: 7-10 fold
fold resistance / cross resistance [16]: 17 fold
fold resistance (IC50 resistant line over IC50 parental line) [18]: 30 fold
IC50 (1A9-A8 cells [3]; Homo sapiens): 15 nM
Relative Resistance (1A9-A8) (1A9-A8 cells [3]): 10
IC50 (1A9-A8^E cells [4]; Homo sapiens): 9 nM
Relative Resistance (1A9-A8^E) (1A9-A8^E cells [4]): 6
IC50 (1A9 cells [5]; Homo sapiens): 1.5 nM

CC[C@]1(O)C[C@H]2CN(CCc3c([nH]c4ccccc34)[C@@](C(=O)OC)(c3cc4c(cc3OC)N(C=O)[C@H]3[C@@](O)(C(=O)OC)[C@H](OC(C)=O)[C@]5(CC)C=CCN6CC[C@]43[C@@H]65)C2)C1 [Vincristine]
G2/M arrest (1A9-A8^E cells [7]; 10 nM): arrested in G2/M
G2/M arrest (1A9-A8^E cells [7]; 10 nM, listed as vincristine): G2/M arrest
G2/M arrest (1A9 cells [12]; 10 nM): G2/M arrest
G2/M arrest (1A9-A8 cells [13]; 10 nM): arrested in G2/M
G2/M arrest (1A9-A8 cells [13]; 10 nM, listed as vincristine): G2/M arrest
